{"source": "ChEMBL document CHEMBL3046872", "about": "“Management of Macrophomina wilt in melons using grafting or fungicide soil application: Pathological, horticultural and economical aspects” (2012)", "assay_type_in_all_cases": "functional", "key": {"[1]": {"system": "Macrophomina phaseolina", "assay": "Fungicidal activity against Macrophomina phaseolina assessed as mycelial growth inhibition incubated at 27 degC for 5 days", "conditions": "120 h"}, "[2]": {"system": "Macrophomina phaseolina", "assay": "(§1) Fungicidal activity against Macrophomina phaseolina in non-grafted Melon plants cv. 6405 plots assessed as disease incidence exposed to compound at 200 ml/1000 m2 of commercial product applied as soil drench three times during growing season (reference value: 65%)"}, "[3]": {"system": "Macrophomina phaseolina", "assay": "Fungicidal activity against Macrophomina phaseolina in non-grafted Melon plants cv. 6405 plots assessed as disease incidence exposed to compound at 300 ml/1000 m2 of commercial product applied as soil drench three times during growing season (reference value: 65%)"}, "[4]": {"system": "Macrophomina phaseolina", "assay": "(§2) Fungicidal activity against Macrophomina phaseolina in non-grafted Melon plants cv. 6405 plots assessed as disease incidence exposed to compound at 250 ml/1000 m2 of commercial product applied as soil drench three times during growing season (reference value: 65%)"}, "[5]": {"system": "Macrophomina phaseolina", "assay": "as §1, with “plots infested with Macrophomina phaseolina” for “plots”, “40” for “200”, “drench to crown zone” for “drench”, “season 21 to 49 days after transplanting” for “season”, “23%)” for “65%)”"}, "[6]": {"system": "Macrophomina phaseolina", "assay": "as §1, with “plots infested with Macrophomina phaseolina” for “plots”, “40” for “200”, “to crown zone 2” for “three”, “season 44 to 56 days after seeding” for “season”, “45%)” for “65%)”"}, "[7]": {"system": "Macrophomina phaseolina", "assay": "as §2, with “plots infested with Macrophomina phaseolina” for “plots”, “drench to crown zone” for “drench”, “season 21 to 49 days after transplanting” for “season”, “23%)” for “65%)”"}, "[8]": {"system": "Macrophomina phaseolina", "assay": "as §2, with “plots infested with Macrophomina phaseolina” for “plots”, “to crown zone 2” for “three”, “season 44 to 56 days after seeding” for “season”, “45%)” for “65%)”"}, "[9]": {"system": "Macrophomina phaseolina", "assay": "as §2, with “plots infested with Macrophomina phaseolina” for “plots”, “to crown zone 1 time” for “three times”, “season 44 to 56 days after seeding” for “season”, “45%)” for “65%)”"}, "[10]": {"system": "Macrophomina phaseolina", "assay": "Fungicidal activity against Macrophomina phaseolina in non-grafted Melon plants cv. 6405 plots assessed as disease incidence exposed to compound at 100 ml/1000 m2 of commercial product applied as soil drench three times during growing season (reference value: 65%)"}, "[11]": {"system": "Macrophomina phaseolina", "assay": "Fungicidal activity against Macrophomina phaseolina in non-grafted Melon plants cv. 6405 plots assessed as disease incidence exposed to compound at 350 ml/1000 m2 of commercial product applied as soil drench three times during growing season (reference value: 65%)"}}}
{"compound": "CCCCC(C#N)(Cn1cncn1)c1ccc(Cl)cc1", "note": "(configuration not stated) [MYCLOBUTANIL]", "values": [{"measurement": "ED50", "setting": "[1]", "value": 0.26, "unit": "mg/kg"}, {"measurement": "Activity", "setting": "[2]", "value": 45, "unit": "%"}]}
{"compound": "FC(F)C(F)(F)OCC(Cn1cncn1)c1ccc(Cl)cc1Cl", "note": "(configuration not stated) [TETRACONAZOLE]", "values": [{"measurement": "Activity", "setting": "[3]", "value": 15, "unit": "%"}, {"measurement": "ED50", "setting": "[1]", "value": 2.96, "unit": "mg/kg"}]}
{"compound": "OC(Cn1cncn1)(c1ccc(F)cc1)c1ccccc1F", "note": "(configuration not stated) [FLUTRIAFOL]", "values": [{"measurement": "Activity", "setting": "[4]", "value": 50, "unit": "%"}, {"measurement": "ED50", "setting": "[1]", "value": 13.1, "unit": "mg/kg"}]}
{"compound": "COCC(=O)N(c1c(C)cccc1C)[C@H](C)C(=O)OC", "note": "[MEFENOXAM]", "values": [{"measurement": "Activity", "setting": "[5]", "value": 10, "unit": "%"}, {"measurement": "Activity", "setting": "[6]", "value": 50, "unit": "%"}, {"measurement": "Activity", "setting": "[3]", "value": 10, "unit": "%"}, {"measurement": "ED50", "setting": "[1]", "value": "> 10", "unit": "mg/kg"}]}
{"compound": "CO/C=C(/C(=O)OC)c1ccccc1Oc1cc(Oc2ccccc2C#N)ncn1", "note": "[AZOXYSTROBIN]", "values": [{"measurement": "Activity", "setting": "[7]", "value": 3, "unit": "%"}, {"measurement": "Activity", "setting": "[8]", "value": 5, "unit": "%"}, {"measurement": "Activity", "setting": "[9]", "value": 15, "unit": "%"}, {"measurement": "ED50", "setting": "[1]", "value": 0.38, "unit": "mg/kg"}, {"measurement": "Activity", "setting": "[2]", "value": 5, "unit": "%"}]}
{"compound": "O=[N+]([O-])c1cc(C(F)(F)F)c(Cl)c([N+](=O)[O-])c1Nc1ncc(C(F)(F)F)cc1Cl", "note": "[FLUAZINAM]", "values": [{"measurement": "ED50", "setting": "[1]", "value": "< 0.01", "unit": "mg/kg"}]}
{"compound": "O=C(Cc1ccccc1)N/C(=N\\OCC1CC1)c1c(C(F)(F)F)ccc(F)c1F", "note": "[CYFLUFENAMID]", "values": [{"measurement": "Activity", "setting": "[10]", "value": 60, "unit": "%"}, {"measurement": "ED50", "setting": "[1]", "value": "< 0.01", "unit": "mg/kg"}]}
{"compound": "CCCOC(=O)NCCCN(C)C.Cl", "note": "[PROPAMOCARB HYDROCHLORIDE]", "values": [{"measurement": "Activity", "setting": "[11]", "value": 30, "unit": "%"}, {"measurement": "ED50", "setting": "[1]", "value": 0.9, "unit": "mg/kg"}]}
{"compound": "N#Cc1c(Cl)c(Cl)c(Cl)c(C#N)c1Cl", "note": "[CHLOROTHALONIL]", "values": [{"measurement": "ED50", "setting": "[1]", "value": 0.61, "unit": "mg/kg"}]}
{"compound": "O=CNC(N1CCN(C(NC=O)C(Cl)(Cl)Cl)CC1)C(Cl)(Cl)Cl", "note": "(configuration not stated) [TRIFORINE]", "values": [{"measurement": "Activity", "setting": "[4]", "value": 25, "unit": "%"}, {"measurement": "ED50", "setting": "[1]", "value": 1, "unit": "mg/kg"}]}
{"compound": "CCCN(CCOc1c(Cl)cc(Cl)cc1Cl)C(=O)n1ccnc1", "note": "[PROCHLORAZ]", "values": [{"measurement": "Activity", "setting": "[4]", "value": 35, "unit": "%"}, {"measurement": "ED50", "setting": "[1]", "value": 0.04, "unit": "mg/kg"}]}
{"compound": "CC(C)NC(=O)N1CC(=O)N(c2cc(Cl)cc(Cl)c2)C1=O", "note": "[IPRODIONE]", "values": [{"measurement": "ED50", "setting": "[1]", "value": 0.03, "unit": "mg/kg"}, {"measurement": "Activity", "setting": "[2]", "value": 35, "unit": "%"}]}
